In patent publication US20220267309A1, “DIMERIC OR POLYMERIC FORM OF MUTANT IDH INHIBITOR” (EPITAS BIOSCIENCES (SHANGHAI) CO., LTD., priority 2019, published 2022):
Read-outs that look alike come from different tables or passages of the source.

How the values were obtained:
Assay type in all cases: cell-based
IDH2/R140Q = molecular target: T1, IDH2/R140Q (Homo sapiens, UniProt P48735, R140Q); experiment: Inhibitory activity against mutant IDH2/R140Q at the cellular level (extracellular 2-HG, U87MG cells); conditions: glioma cell U87MG overexpressing IDH2/R140Q; for IC50: 2-HG in culture medium
T1 construct: expressed in transfected cells; host or cells: U87MG glioma cells
T1 sequence (P48735 40-452 R140Q): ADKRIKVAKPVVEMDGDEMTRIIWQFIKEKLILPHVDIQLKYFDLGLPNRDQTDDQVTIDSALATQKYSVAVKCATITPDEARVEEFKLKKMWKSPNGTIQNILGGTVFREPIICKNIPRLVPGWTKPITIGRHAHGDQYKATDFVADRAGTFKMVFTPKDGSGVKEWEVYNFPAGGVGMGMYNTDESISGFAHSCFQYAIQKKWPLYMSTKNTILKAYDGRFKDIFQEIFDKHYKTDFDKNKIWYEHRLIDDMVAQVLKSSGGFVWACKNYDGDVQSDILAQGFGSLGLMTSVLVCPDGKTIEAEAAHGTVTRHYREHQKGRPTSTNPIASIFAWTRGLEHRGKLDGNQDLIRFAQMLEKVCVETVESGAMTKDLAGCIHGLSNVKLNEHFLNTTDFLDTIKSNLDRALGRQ
Description: (§1) 2-Hydroxyglutarate dehydrogenase (2HGDH) can reduce NAD+ to NADH in the presence of 2-HG. The later can be quantitatively detected by diaphorase and its substrate Resazurin.
(§2) The cells were digested with trypsin and seeded in a 96-well plate at a density of 1×10^4 with a medium of 200 μL and cultured in a 37° C. incubator overnight. The next day, the test compound was added to a final concentration of 0.1% for DMSO. […] The protein and other components in the culture medium that may interfere with the results were filtered, and the follow-up method was used to detect the content of 2-HG.
(§3) Extracellular 2-HG Detecting System:
(§4) (1) 50 μL reaction system: reaction buffer (50 mM Tris pH7.5, 100 mM NaCl, 20 mM MgCl2, 0.05% BSA), in which the final concentration of NAD+ was 40 μM, the final concentration of 2HGDH was 20 nM, and the test sample was added to 5 μL of culture medium; the reaction solution was mixed and centrifuged, and the reaction was carried out for 1 hour at 25° C. in the dark;
(2) 25 μL color development system: color development buffer (50 mM Tris pH7.5, 100 mM NaCl, 20 mM MgCl2, 0.05% BSA), in which the final concentration of diaphorase was 36 μg/mL, and the final concentration of resazurin sodium was 3 μM; 25 μL of the above-mentioned color developing solution was added to the 50 μL reaction system in (1), mixed and centrifuged, and the fluorescence value was measured immediately under Ex544/Em590.
(§5) Preparation of standard curve of 2-HG: the stock solution of 2-HG was diluted to 20 μM with reaction buffer, and a 2-fold gradient diluting was performed for a total of 6 points. Afterwards the above-mentioned 2-HG was measured according to the extracellular 2-HG detecting system, and a standard curve was calculated and drawn.
Calculation of Extracellular 2-HG Content:
the fluorescence value obtained in the extracellular 2-HG detecting system was calculated using the 2-HG standard curve to calculate the content of 2-HG in the culture medium, and DMSO was used as a negative control to calculate the compound's inhibition against IDH1/R132H mutation producing the 2-HG activity.
The experimental steps were the same as in Example 7, except that the glioma cell U87MG overexpressing the IDH1/R132H mutation was replaced with the glioma cell U87MG overexpressing the IDH2/R140Q mutation.

IDH1/R132H = molecular target: T2, IDH1/R132H (Homo sapiens, UniProt O75874, R132H); experiment: Inhibitory activity against mutant IDH1/R132H at the cellular level (extracellular 2-HG, U87MG cells)
T2 construct: expressed in transfected cells; host or cells: U87MG glioma cells
Description: as §1, §2, §3, §4, §5

IDH1/R132C = molecular target: T3, IDH1/R132C (Homo sapiens, UniProt O75874, R132C); experiment: Inhibitory activity against mutant IDH1/R132C at the cellular level (extracellular 2-HG, HT-1080 cells)
T3 construct: the fibrosarcoma cell HT-1080 containing the IDH1/R132C mutation; endogenous in cells; host or cells: HT-1080 fibrosarcoma cells
Description: as §1, §2, §3, §4, §5

[1] = glioma cell U87MG overexpressing IDH1/R132H, 2-HG in culture medium, read-out: IC50, inhibitory activity against IDH1/R132H
[2] = glioma cell U87MG overexpressing IDH1/R132H, 24 hours, 2-HG in culture medium, read-out: IC50 (nM), inhibitory activity against IDH1/R132H
[3] = fibrosarcoma cell HT-1080 containing IDH1/R132C, 2-HG in culture medium, read-out: IC50 (nM), inhibitory activity against IDH1/R132C
[4] = fibrosarcoma cell HT-1080 containing IDH1/R132C, 2-HG in culture medium, read-out: IC50, inhibitory activity against IDH1/R132C

T3 sequence (O75874 2-414 R132C limits assumed): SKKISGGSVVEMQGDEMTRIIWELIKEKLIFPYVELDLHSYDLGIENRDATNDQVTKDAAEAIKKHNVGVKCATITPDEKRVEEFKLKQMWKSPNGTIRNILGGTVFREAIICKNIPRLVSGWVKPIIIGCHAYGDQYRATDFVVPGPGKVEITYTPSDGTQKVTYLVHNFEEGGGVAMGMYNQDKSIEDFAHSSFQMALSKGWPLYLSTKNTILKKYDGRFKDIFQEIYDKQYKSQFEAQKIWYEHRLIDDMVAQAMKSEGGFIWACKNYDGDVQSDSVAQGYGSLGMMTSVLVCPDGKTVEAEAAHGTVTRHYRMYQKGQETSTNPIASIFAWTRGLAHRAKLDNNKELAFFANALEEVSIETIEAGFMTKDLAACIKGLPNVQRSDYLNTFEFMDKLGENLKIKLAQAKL
T2 sequence (O75874 whole entry R132H): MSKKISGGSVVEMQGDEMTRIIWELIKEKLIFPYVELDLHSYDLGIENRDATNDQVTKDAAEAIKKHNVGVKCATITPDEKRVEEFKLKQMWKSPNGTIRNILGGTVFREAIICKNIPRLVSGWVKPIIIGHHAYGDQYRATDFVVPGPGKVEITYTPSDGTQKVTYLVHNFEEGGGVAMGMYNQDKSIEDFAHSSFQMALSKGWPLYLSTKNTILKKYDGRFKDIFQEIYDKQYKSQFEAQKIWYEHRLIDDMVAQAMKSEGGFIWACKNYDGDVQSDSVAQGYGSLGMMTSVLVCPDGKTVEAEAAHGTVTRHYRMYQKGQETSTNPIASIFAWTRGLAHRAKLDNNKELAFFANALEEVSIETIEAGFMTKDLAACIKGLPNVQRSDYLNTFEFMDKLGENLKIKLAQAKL

Row | Compound | IC50 (IDH2/R140Q) [µM] | IC50 (IDH1/R132H; [1]) [nM] | IC50 (IDH1/R132H; [2]) [nM] | Inhibition of IDH2/R140Q (IDH2/R140Q) | IC50 (IDH1/R132C; [3]) [nM] | IC50 (IDH1/R132C; [4]) [nM] | IC50 (IDH1/R132H) [nM] | IC50 (IDH1/R132C) [nM]
1 | N#Cc1ccnc(N2C(=O)CC[C@H]2C(=O)N(c2cncc(F)c2)[C@H](C(=O)NC2CC(F)(F)C2)c2ccccc2Cl)c1 [AG-120, reference compound] | > 20 | – | – | – | – | – | – | –
2 | CC(C)[C@H]1COC(=O)N1c1ccnc(N[C@@H](C)c2ccc(OCCOCCOCCOc3ccc([C@H](C)Nc4nccc(N5C(=O)OC[C@@H]5C(C)C)n4)nc3)cn2)n1 [Compound 1, (4S,4′S)-3,3′-(2,2′-(((1S,1′S)-(5,5′-(((ethane-1,2-diylbis(oxy))bis(ethane-2,1-diyl))bis(oxy))bis(pyridine-5,2-diyl))bis(ethane-1,1-diyl))bis(azanediyl))bis(pyrimidine-4,2-diyl))bis(4-isopropyloxazolidin-2-one)] | > 20 | ≤ 5 | < 5 | did not inhibit | < 5 | ≤ 5 | – | –
3 | CC(C)[C@H]1COC(=O)N1c1ccnc(N[C@@H](C)c2ccc(OCCOCCOCCOCCOc3ccc([C@H](C)Nc4nccc(N5C(=O)OC[C@@H]5C(C)C)n4)nc3)cn2)n1 [Compound 2, (4S,4′S)-3,3′-(2,2′-(((1S,1′S)-(5,5′-((((oxybis(ethane-2,1-diyl))bis(oxy))bis(ethane-2,1-diyl))bis(oxy))bis(pyridine-5,2-diyl))bis(ethane-1,1-diyl))bis(azanediyl))bis(pyrimidine-4,2-diyl))bis(4-isopropyloxazolidin-2-one)] | > 20 | ≤ 5 | < 5 | did not inhibit | < 5 | ≤ 5 | – | –
4 | CC(C)[C@H]1COC(=O)N1c1ccnc(N[C@@H](C)c2ccccc2)n1 [IDH125, reference compound] | > 20 | – | – | – | – | – | – | –
5 | CC(C)[C@H]1COC(=O)N1c1ccnc(N[C@@H](C)c2ccccn2)n1 [Ref1, reference compound] | > 20 | – | – | – | – | – | 500 to 10000 | 500 to 10000
